≈ marks a conversion by molar mass, not a printed value.
Key:
Pseudomonas aeruginosa = experiment: Antibacterial activity against Pseudomonas aeruginosa assessed as reduction in bacterial growth; assay type: functional
Escherichia coli = experiment: Antibacterial activity against Escherichia coli assessed as reduction in bacterial growth; assay type: functional
Staphylococcus aureus = experiment: Antibacterial activity against Staphylococcus aureus assessed as reduction in bacterial growth; assay type: functional
[1] = Cytotoxicity against MAEC cells assessed as inhibition of cell growth at 0.5 mM relative to control; assay type: toxicity, cell-based; conditions: mouse
MDA-MB-231 [2] = experiment: Cytotoxicity against human MDA-MB-231 cells assessed as inhibition of cell growth at 0.5 mM relative to control; assay type: functional
MDA-MB-231 [3] = experiment: Cytotoxicity against human MDA-MB-231 cells assessed as inhibition of cell viability; assay type: functional, cell-based
[4] = Cytotoxicity against MAEC cells assessed as cell viability; assay type: toxicity, cell-based; conditions: mouse

SMILES	MIC (Pseudomonas aeruginosa) [µM]	MIC (Escherichia coli) [µM]	MIC (Staphylococcus aureus) [µM]	inhibition at 500 µM [1] [%]	inhibition at 500 µM (MDA-MB-231 [2]) [%]	EC50 (MDA-MB-231 [3]) [µM]	EC50 [4] [µM]
NS(=O)(=O)c1ccc(N/N=C2\C(=O)C3(CCCC3)CS2(=O)=O)cc1	750 (≈ 279 µg/mL)	188 (≈ 69.8 µg/mL)	94 (≈ 34.9 µg/mL)	1	81	–	–
CC(C)(C)OC(=O)N1CC2(C1)CS(=O)(=O)/C(=N/Nc1cccc(S(N)(=O)=O)c1)C2=O	> 750	188 (≈ 86.2 µg/mL)	188 (≈ 86.2 µg/mL)	6	63	–	–
O=C1/C(=C\NCc2ccccc2)S(=O)(=O)CC12CC2	750 (≈ 208 µg/mL)	750 (≈ 208 µg/mL)	750 (≈ 208 µg/mL)	17	90	270	–
CC1(C)CS(=O)(=O)/C(=N/Nc2ccc(S(N)(=O)=O)cc2)C1=O	375 (≈ 130 µg/mL)	188 (≈ 64.9 µg/mL)	188 (≈ 64.9 µg/mL)	3	51	–	–
CC1(C)CS(=O)(=O)/C(=N/Nc2cccc(S(N)(=O)=O)c2)C1=O	> 750	188 (≈ 64.9 µg/mL)	23 (≈ 7.94 µg/mL)	1	78	–	–
CC1(C)CS(=O)(=O)/C(=C/NCc2ccccc2)C1=O	750 (≈ 210 µg/mL)	750 (≈ 210 µg/mL)	94 (≈ 26.3 µg/mL)	10	88	283	–
CC(C)(C)OC(=O)N1CCC2(CC1)CS(=O)(=O)/C(=N/Nc1ccc(S(N)(=O)=O)cc1)C2=O	> 750	750 (≈ 365 µg/mL)	375 (≈ 182 µg/mL)	11	93	249	–
O=C1/C(=C\Nc2ccccc2)S(=O)(=O)CC12CC2	375 (≈ 98.7 µg/mL)	> 750	> 750	6	19	–	–
NS(=O)(=O)c1cccc(N/N=C2\C(=O)C3(CCCC3)CS2(=O)=O)c1	> 750	188 (≈ 69.8 µg/mL)	188 (≈ 69.8 µg/mL)	10	21	–	–
CC(C)(C)OC(=O)N1CC2(C1)CS(=O)(=O)/C(=N/Nc1ccc(S(N)(=O)=O)cc1)C2=O	750 (≈ 344 µg/mL)	188 (≈ 86.2 µg/mL)	23 (≈ 10.5 µg/mL)	20	21	–	–
CC(C)(C)OC(=O)N1CCC2(CC1)CS(=O)(=O)/C(=N/Nc1cccc(S(N)(=O)=O)c1)C2=O	> 750	188 (≈ 91.5 µg/mL)	375 (≈ 182 µg/mL)	7	37	–	–
Cc1ccc(N/N=C2\C(=O)C3(CCCC3)CS2(=O)=O)cc1	750 (≈ 230 µg/mL)	> 750	> 750	26	66	–	–
CC1(C)CS(=O)(=O)/C(=C/Nc2ccccc2)C1=O	375 (≈ 99.5 µg/mL)	188 (≈ 49.9 µg/mL)	94 (≈ 24.9 µg/mL)	7	7	–	–
NS(=O)(=O)c1ccc(N/N=C2\C(=O)C3(CC3)CS2(=O)=O)cc1	> 750	94 (≈ 32.3 µg/mL)	188 (≈ 64.6 µg/mL)	1	4	–	–
CCC1(C)CCS(=O)(=O)/C(=N/Nc2ccc(S(N)(=O)=O)cc2)C1=O (stereo not given)	750 (≈ 280 µg/mL)	750 (≈ 280 µg/mL)	375 (≈ 140 µg/mL)	100	57	–	78
Nc1cccc(S(N)(=O)=O)c1	750 (≈ 129 µg/mL)	750 (≈ 129 µg/mL)	375 (≈ 64.6 µg/mL)	100	30	–	93
Nc1ccc(S(N)(=O)=O)cc1 [SULFANILAMIDE]	750 (≈ 129 µg/mL)	375 (≈ 64.6 µg/mL)	750 (≈ 129 µg/mL)	6	57	–	–
